The subject of one data set is Crl:CD (SD) rats. Briefly: Influence on platelet count in SD rats. The format is in vivo. The note with it: for Platelet count: mean ± standard deviation; for effect on platelet count: within the dose range used for evaluation. Here is the method: The compound of the present invention was suspended in a 0.5% methylcellulose solution so as to have a dose of 50 to 600 mg/kg/day, and was orally repeatedly administered for 4 days to 6-week-old male Crl:CD (SD) rats under non-fasted conditions. On day 5 from the start of administration, blood was collected from the abdominal vena cava under anesthesia, and […]. A platelet count in plasma was evaluated with an automatic hemocytometer.

The next data set concerns the target recombinant human ACC1 (Homo sapiens (Human), UniProt Q13085). Description: Measurement of inhibitory activity of human ACC1 (MALDI-TOF MS). The class given is biochemical. The note with it: read-out: IC50 hACC1. The text has this: A cDNA encoding human ACC1 protein (1 amino acid residue to 2346 amino acid residues from the N-terminus) was cloned from a human liver cDNA library (BioChain Institute Inc.), myc tag and His-tag sequences were introduced at the 3′ end, and then inserted into pIEXBAC3 (Novagen). A recombinant baculovirus was produced in accordance with the protocol for Flash BACGOLD (Oxford Expression Technologies Ltd.), and Sf-9 cells were infected therewith to express human ACC1 protein. The recovered cells were crushed, filtered through a filter, and then subjected to Ni affinity chromatography and anion exchange chromatography. Fractions containing human ACC1 protein were collected to obtain recombinant human ACC1.
The recombinant human ACC1 and the recombinant human ACC2 obtained from the above Preparation Examples were preincubated in an assay buffer (50 mM HEPES-KOH (pH 7.4), 10 mM magnesium chloride, 6 to 10 mM potassium citrate, 4 mM glutathione reduced form, and 1.5 mg/ml bovine serum albumin) for 1 hour. Then, 5 μL of the pre-incubated enzyme solution and 5 μL of a substrate solution (50 mM HEPES-KOH (pH 7.4), 1 mM ATP, 0.8 mM acetyl-CoA, and 25 to 50 mM potassium bicarbonate) were added to a 384-well microplate into which 0.2 μl of each of solutions of the compound of the present invention (DMSO had been dispensed, and the mixture was centrifuged and shaken, and then incubated in a wet box at room temperature for 1 to 3 hours. After incubation, the enzymatic reaction was stopped by addition of EDTA, and then the sample was co-crystallized with an α-cyano-4-hydroxy cinnamic acid (CHCA) matrix on a MALDI target plate, and measurement was performed in a reflector negative mode using a matrix-assisted laser desorption ionization-time-of-flight mass spectrometer (MALDI-TOF MS). Deprotonated ions of the substrate acetyl-CoA (AcCoA) and the reaction product malonyl-CoA (MalCoA) were detected, and the intensity of each signal was used to calculate a conversion rate to malonyl-CoA or succinyl-CoA, i.e., intensity of [MalCoA-H]—/(intensity of [MalCoA-H]-+intensity of [AcCoA.H].). […] The potassium citrate concentration in the assay buffer, the potassium bicarbonate concentration in the substrate solution, and the incubation time were adjusted within the above concentrations or reaction times for each lot of the enzyme to be used.

The next data set deals with recombinant human ACC2 (Homo sapiens (Human), UniProt O00763). Description: Measurement of inhibitory activity of human ACC2 (MALDI-TOF MS). The format is biochemical. The note with it: read-out: IC50 hACC2. The text has this:
A cDNA encoding human ACC2 protein (27 amino acid residues to 2458 amino acid residues from the N-terminus) was cloned from a human kidney cDNA library (Clontech Laboratories, Inc.), a His-tag sequence was introduced at the 5′ end, and then inserted into pFastBac1 (Invitrogen). A recombinant baculovirus was produced in accordance with the protocol for a Bac-to-Bac baculovirus expression system (Invitrogen), and Sf-9 cells were infected therewith to express human ACC2 protein. The recovered cells were crushed, filtered through a filter, and then subjected to Ni affinity chromatography and anion exchange chromatography. Fractions containing human ACC2 protein were collected to obtain recombinant human ACC2.
The recombinant human ACC1 and the recombinant human ACC2 obtained from the above Preparation Examples were preincubated in an assay buffer (50 mM HEPES-KOH (pH 7.4), 10 mM magnesium chloride, 6 to 10 mM potassium citrate, 4 mM glutathione reduced form, and 1.5 mg/ml bovine serum albumin) for 1 hour. […] Deprotonated ions of the substrate acetyl-CoA (AcCoA) and the reaction product malonyl-CoA (MalCoA) were detected, and the intensity of each signal was used to calculate a conversion rate to malonyl-CoA or succinyl-CoA, i.e., intensity of [MalCoA-H]—/(intensity of [MalCoA-H]-+intensity of [AcCoA.H].). […] The potassium citrate concentration in the assay buffer, the potassium bicarbonate concentration in the substrate solution, and the incubation time were adjusted within the above concentrations or reaction times for each lot of the enzyme to be used.

Data set [1] can be described thus: Metabolic stability test, rat. The format is in vitro ADME. The note with it: 30 minutes.
A short description of data set [2]: Metabolic stability test, human liver microsomes. The class given is in vitro ADME. The note with it: 37° C., 30 minutes, NADPH. How it is done:
Commercially available pooled human liver microsomes were reacted with the compound of the present invention for a given time. A residual rate was calculated by comparison between the reacted sample and the unreacted sample to evaluate a degree at which the compound of the present invention is metabolized in the liver.
The compound was reacted at 37° C. for 0 minutes or 30 minutes in the presence of 1 mmol/L NADPH in 0.2 mL of a buffer (50 mmol/L Tris-HCl pH 7.4, 150 mmol/L potassium chloride, and 10 mmol/L magnesium chloride) containing 0.5 mg protein/mL of the human liver microsomes (oxidative reaction). After the reaction, 50 μL of the reaction solution was added to 100 μL of a solution of methanol/acetonitrile=1/1 (v/v) and mixed, and the mixture was centrifuged at 3000 rpm for 15 minutes. The compound of the present invention in the centrifuged supernatant was quantified by LC/MS/MS or solid-phase extraction (SPE)/MS. The amount of the compound of the present invention remained after the reaction was calculated with the amount of the compound at 0 minutes of the reaction defined as 100%.

In a further data set the test system is C57BL/6JJcl mice. Briefly: Plasma triglyceride concentration in mice fed ultra-high fat, choline-deficient, methionine-lowered diet. The class given is in vivo. The note with it: for Plasma triglyceride concentration: bid, mean ± standard error; for plasma triglyceride concentration versus vehicle-administered group: mice fed ultra-high fat, choline-deficient, methionine-lowered diet, repeated oral b.i.d. How it is done: Six-week-old male C57BL/6JJcl mice were fed an ultra-high fat, choline-deficient, methionine-lowered diet (60 kcal % fat content, using lard, choline-deficient, methionine-lowered (0.1%)), and at the same time, the compound of the present invention was suspended in a vehicle (0.5% methylcellulose aqueous solution) so as to have a dose of 3 to 45 mg/kg/10 mL, and orally repeatedly administered (b.i.d.) for 8 weeks. Blood was collected from the tail vein during the repeated administration period, and biochemical parameters in plasma were measured.

recombinant human ACC2, sequence (O00763 27-2458): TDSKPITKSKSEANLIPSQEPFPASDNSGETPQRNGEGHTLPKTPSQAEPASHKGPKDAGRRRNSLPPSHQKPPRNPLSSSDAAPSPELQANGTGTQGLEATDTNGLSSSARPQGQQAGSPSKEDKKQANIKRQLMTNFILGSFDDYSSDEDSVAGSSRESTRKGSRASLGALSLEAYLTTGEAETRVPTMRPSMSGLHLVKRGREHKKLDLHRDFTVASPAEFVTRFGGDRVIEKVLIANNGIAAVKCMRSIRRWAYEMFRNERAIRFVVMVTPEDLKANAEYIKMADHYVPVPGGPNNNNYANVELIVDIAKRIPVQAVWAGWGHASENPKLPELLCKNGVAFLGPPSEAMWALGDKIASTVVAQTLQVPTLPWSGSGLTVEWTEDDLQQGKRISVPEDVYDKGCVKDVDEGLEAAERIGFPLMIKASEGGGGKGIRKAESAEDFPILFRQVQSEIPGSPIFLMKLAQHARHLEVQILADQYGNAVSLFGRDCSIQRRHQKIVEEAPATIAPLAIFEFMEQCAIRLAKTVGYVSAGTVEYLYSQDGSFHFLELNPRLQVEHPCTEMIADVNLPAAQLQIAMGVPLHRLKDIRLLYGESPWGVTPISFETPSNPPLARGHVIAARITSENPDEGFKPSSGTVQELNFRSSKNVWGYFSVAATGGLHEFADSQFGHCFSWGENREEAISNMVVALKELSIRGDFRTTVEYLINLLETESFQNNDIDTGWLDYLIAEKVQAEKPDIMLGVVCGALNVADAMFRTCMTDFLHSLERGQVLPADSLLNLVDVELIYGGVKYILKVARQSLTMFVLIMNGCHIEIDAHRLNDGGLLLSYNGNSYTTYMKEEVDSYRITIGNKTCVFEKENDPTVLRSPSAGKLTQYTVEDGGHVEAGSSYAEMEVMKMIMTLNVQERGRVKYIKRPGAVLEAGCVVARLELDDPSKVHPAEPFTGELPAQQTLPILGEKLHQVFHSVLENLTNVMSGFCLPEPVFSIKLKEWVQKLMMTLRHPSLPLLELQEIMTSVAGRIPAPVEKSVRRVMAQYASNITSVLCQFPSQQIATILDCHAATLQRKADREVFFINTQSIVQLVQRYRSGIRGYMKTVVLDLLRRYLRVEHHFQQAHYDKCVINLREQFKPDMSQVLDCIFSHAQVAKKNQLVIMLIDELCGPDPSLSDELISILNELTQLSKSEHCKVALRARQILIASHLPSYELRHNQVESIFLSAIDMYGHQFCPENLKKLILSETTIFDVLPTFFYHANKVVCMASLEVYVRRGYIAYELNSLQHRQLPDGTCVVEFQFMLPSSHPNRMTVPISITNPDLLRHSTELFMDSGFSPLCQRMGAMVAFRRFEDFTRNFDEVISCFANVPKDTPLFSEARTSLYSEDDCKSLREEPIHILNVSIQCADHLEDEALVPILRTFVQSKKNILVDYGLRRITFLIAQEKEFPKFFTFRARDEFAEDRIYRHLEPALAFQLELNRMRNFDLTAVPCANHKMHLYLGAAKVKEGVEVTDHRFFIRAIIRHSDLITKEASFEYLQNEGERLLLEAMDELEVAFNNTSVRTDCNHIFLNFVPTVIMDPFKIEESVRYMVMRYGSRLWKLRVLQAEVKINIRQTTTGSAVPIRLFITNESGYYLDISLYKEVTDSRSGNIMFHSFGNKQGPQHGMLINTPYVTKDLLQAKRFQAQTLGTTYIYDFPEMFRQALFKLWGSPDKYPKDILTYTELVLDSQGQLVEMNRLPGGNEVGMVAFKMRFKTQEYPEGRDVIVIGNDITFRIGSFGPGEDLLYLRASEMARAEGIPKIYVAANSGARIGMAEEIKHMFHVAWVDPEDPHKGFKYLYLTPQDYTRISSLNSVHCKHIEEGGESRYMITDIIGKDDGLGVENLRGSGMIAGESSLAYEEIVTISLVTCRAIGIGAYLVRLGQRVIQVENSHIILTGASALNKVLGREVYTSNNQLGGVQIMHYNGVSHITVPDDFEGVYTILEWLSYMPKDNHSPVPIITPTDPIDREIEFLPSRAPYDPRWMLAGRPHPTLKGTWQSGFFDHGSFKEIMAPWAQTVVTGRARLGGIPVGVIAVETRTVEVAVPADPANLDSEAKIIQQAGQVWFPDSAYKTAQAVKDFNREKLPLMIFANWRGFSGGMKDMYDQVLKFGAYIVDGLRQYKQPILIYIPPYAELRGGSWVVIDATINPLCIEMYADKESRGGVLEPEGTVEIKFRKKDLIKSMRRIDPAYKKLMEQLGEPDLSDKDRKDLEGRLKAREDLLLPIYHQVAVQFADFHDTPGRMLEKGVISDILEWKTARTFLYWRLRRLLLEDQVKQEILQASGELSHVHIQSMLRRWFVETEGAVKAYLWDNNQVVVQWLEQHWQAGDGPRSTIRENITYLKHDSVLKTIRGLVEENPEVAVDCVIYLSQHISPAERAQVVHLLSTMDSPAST

On to `C[C@@H](COC1CCC(Oc2nc3c(F)cc(OC4CC4)cc3n2C)CC1)NC(N)=O` (stereo partly shown) [Compound I-12], for which the results for the Platelet count in the data set with Crl:CD (SD) rats (100 mg/kg/day oral for 4 days), in the data set on Crl:CD (SD) rats (300 mg/kg/day oral for 4 days) and in the data set with Crl:CD (SD) rats (600 mg/kg/day oral for 4 days) were 987 ± 86, 988 ± 43 and 1061 ± 85, respectively. In addition, in the data set on Crl:CD (SD) rats, the “effect on platelet count” value is on record as “did not affect”. In addition, the 50% inhibitory concentration (IC50) was 6900 nM on recombinant human ACC1 and 5.6 nM on recombinant human ACC2. Also, the “Remaining amount of compound, Rat” value in data set [1] is 85.5%. Besides, the “Remaining amount of compound, Human” value in data set [2] was 83.3%. For the same compound, the Plasma triglyceride concentration with C57BL/6JJcl mice (3 mg/kg, 2 weeks) is reported as 32.9 ± 1.3 mg/dL; in the data set with C57BL/6JJcl mice (3 mg/kg, 4 weeks), 22.4 ± 2.1 mg/dL; with C57BL/6JJcl mice (3 mg/kg, 7 weeks) it was 27.2 ± 1.5 mg/dL; with C57BL/6JJcl mice (10 mg/kg, 2 weeks), 30.4 ± 2.2 mg/dL; with C57BL/6JJcl mice (10 mg/kg, 4 weeks) it was 21.5 ± 1.8 mg/dL; with C57BL/6JJcl mice (10 mg/kg, 7 weeks), 22.1 ± 1.9 mg/dL. Also, the Plasma triglyceride concentration was found to be 23.1 ± 2.5 mg/dL in the data set on C57BL/6JJcl mice (30 mg/kg, 2 weeks); 11.1 ± 1.1 mg/dL in the data set with C57BL/6JJcl mice (30 mg/kg, 4 weeks); 16.2 ± 1.6 mg/dL in the data set with C57BL/6JJcl mice (30 mg/kg, 7 weeks). The “plasma triglyceride concentration versus vehicle-administered group” value in the data set with C57BL/6JJcl mice was “lower than that in the vehicle-administered group”.

For the compound `CC(=O)N[C@@H](C)CCC1OCC(Oc2nc3c(F)c(OC4CC4)ccc3n2C)CO1` (stereo partly shown) [Compound I-13], the Platelet count with Crl:CD (SD) rats (50 mg/kg/day oral for 4 days) stood at 1079 ± 73; in the data set with Crl:CD (SD) rats (100 mg/kg/day oral for 4 days) it was 1048 ± 65; in the data set on Crl:CD (SD) rats (200 mg/kg/day oral for 4 days), 1122 ± 87. The “effect on platelet count” value with Crl:CD (SD) rats is on record as “did not affect”. The 50% inhibitory concentration (IC50) turned out to be 910 nM at recombinant human ACC1 and 6.6 nM at recombinant human ACC2. In addition, the “Remaining amount of compound, Rat” value in data set [1] is recorded as 87%. Besides, the “Remaining amount of compound, Human” value in data set [2] is 95.4%. The Plasma triglyceride concentration in the data set on C57BL/6JJcl mice (15 mg/kg, 0 weeks) is 61.6 ± 3.1 mg/dL; with C57BL/6JJcl mice (15 mg/kg, 1 week) it was 23.7 ± 1.0 mg/dL; with C57BL/6JJcl mice (15 mg/kg, 3 weeks), 19.8 ± 1.2 mg/dL; in the data set on C57BL/6JJcl mice (15 mg/kg, 5 weeks), 19.0 ± 1.7 mg/dL; with C57BL/6JJcl mice (15 mg/kg, 7 weeks), 18.8 ± 1.2 mg/dL; with C57BL/6JJcl mice (45 mg/kg, 0 weeks) it was 63.6 ± 3.7 mg/dL. The Plasma triglyceride concentration stood at 22.4 ± 2.5 mg/dL with C57BL/6JJcl mice (45 mg/kg, 1 week); 18.9 ± 1.4 mg/dL in the data set with C57BL/6JJcl mice (45 mg/kg, 3 weeks); 16.5 ± 1.7 mg/dL with C57BL/6JJcl mice (45 mg/kg, 5 weeks); 15.1 ± 1.0 mg/dL in the data set on C57BL/6JJcl mice (45 mg/kg, 7 weeks). Moreover, in the data set on C57BL/6JJcl mice, the “plasma triglyceride concentration versus vehicle-administered group” value is “lower than that in the vehicle-administered group”.

Values taken from US20250041279A1, “THERAPEUTIC MEDICINE FOR HEART DISEASE OR SKELETAL MUSCLE DISEASE” (SHIONOGI & CO., LTD., priority 2021, published 2025).
